Measurements as given in patent US6919372B1, “Sustained release pharmaceutical compositions” (Yamanouchi Pharmaceutical Co., Ltd., priority 1997, dated 2005).
Structures can show the parent of a compound that is named as a salt.

Key:
Type in all cases: physicochemical
[1] = Test 2: octanol/phosphate buffer partition coefficient of BPS with various cations; conditions: for PC of BPS, Equimolar amount: cation added to give equal charge; for PC of BPS, Excess × 20: cation added to give charges 20 times more; for effect of added compound on the partition coefficient of BPS (in words): octanol/phosphate buffer pH 7, compared to no ionic compound added
Experimental: (§1) BPS was dissolved in phosphate buffer solution having pH of 5 to 8 in a concentration of 240 μg/ml. Various cations were added to the mixtures to give equivalent charge to that of BPS or 5 times or 20 times more than that of BPS. The same volume of octanol as that of the aqueous phase was added to the mixture followed by shaking at 37° C. for an hour. After centrifugation, the concentration of the pharmaceutically active substance in the aqueous phase was measured to calculate the partition coefficient.
(§2) partition coefficient=concentration of the pharmaceutically active substance in the octanol phase/concentration of the pharmaceutically active substance in the aqueous phase
A variety of cations were examined with their effect if these cations would affect the partition coefficient of BPS in octanol/phosphate buffer solution (pH 7).
The pharmaceutically active substance was dissolved in an aqueous phase in a concentration of 240 μg/ml. Various cations were added to the solution to give equal charge to that of the pharmaceutically active substance or charges 20 times more than that of the substance. Then the same procedure as in Test 1 was applied to calculate the partition coefficient.

[2] = Test 1: effect of ratio of benzalkonium chloride added and pH on octanol/phosphate buffer partition coefficient of BPS
Experimental: as §1, §2

[3] = Test 3: in vitro release test of gel preparation using various cations; conditions: 10 ml phosphate buffer solution (pH 7.4) at 37° C.
Experimental: Each of the gel preparations obtained in Examples 1 to 9 and Comparative Examples 1 to 3 was evaluated, respectively, with regard to the release of the active substance in 10 ml of a phosphate buffer solution (pH 7.4) at 37° C.

[4] = octanol/phosphate buffer pH 7, 37° C., BPS 240 μg/ml

| PC of BPS, Equimolar amount [1, 4] | Compound | PC of BPS, Excess × 20 [1, 4] | effect of added compound on the partition coefficient of BPS (in words) [1] | further results |
| --- | --- | --- | --- | --- |
| – | CC#CCC(C)[C@H](O)/C=C/[C@@H]1[C@H]2c3cccc(CCCC(=O)O)c3O[C@H]2C[C@H]1O (relative stereo) [BPS, (±)-(1R*,2R*,3aS*,8bS*)-2,3,3a,8b-tetrahydro-2-hydroxy-1-[(e)-(3S*)-3-hydroxy-4-methyl-1-octen-6-ynyl]-1H-cyclopenta[b]benzofuran-5-butanoic acid, reference compound] | – | – | PC of BPS, no cation added ([1]; octanol/phosphate buffer pH 7, 37° C., BPS 240 μg/ml, cation added: None): 16.2; partition coefficient of BPS as the pH increased ([2]; phosphate buffer pH 5 to 8, FIG. 1): decreased as the pH increased |
| 59.5 | CCCCCCCCCCCCCCCCCCCCCC[N+](C)(C)C.[Cl-] [Behenyltrimethylammonium chloride] | – | – | – |
| 17.7 | CCCNC(C)(C)COC(=O)c1ccccc1 [Meprylcaine hydrochloride, reference compound] | 53.3 | increase | – |
| 64.5 | CCCCCCCCCCCCCC[N+](C)(C)Cc1ccccc1.[Cl-] [Myristyldimethylbenzylammonium chloride] | 1210 | – | – |
| 60.9 | CCCCCCCC[N+](C)(C)Cc1ccccc1.[Cl-] [Octyldimethylbenzylammonium chloride] | 568 | – | – |
| 30.4 | CC(=O)O.CCCCCCCC/C=C\CCCCCCCCN [Oleylamine acetate] | 473 | – | – |
| 32.6 | CC(=O)O.CCCCCCCCCCCCCCCCCCN [Stearylamine acetate] | 158 | – | – |
| 62.3 | CCCCCCCCCCCCCCCCCC[N+](C)(C)Cc1ccccc1.[Cl-] [Stearyldimethylbenzylammonium chloride] | 1350 | – | – |
| 83.4 | CCCCCCCCCCCCCCCCCC[N+](C)(C)C.[Cl-] [Stearyltrimethylammonium chloride] | 995 | – | – |
| – | CC[N+](CC)(CC)Cc1ccccc1.[Cl-] [Triethylbenzylammonium chloride] | – | increase | – |
| – | Cl.N=C(N)NCCC[C@H](N)C(=O)O [arginine hydrochloride, reference compound] | – | no increase | release of the active substance from gel preparation [3]: no delayed release |
| – | [Cl-].[Cl-].[Mg+2] [magnesium chloride, reference compound] | – | no increase | – |
| – | O=S(=O)([O-])[O-].[Mg+2] [magnesium sulfate] | – | – | release of the active substance from gel preparation [3]: no delayed release |
| – | [Cl-].[Na+] [sodium chloride] | – | – | partition coefficient of BPS when sodium chloride was added to make the solution isotonic ([2]; 20 times of equivalent molar ratio of benzalkonium chloride included): decreased |
| – | CCCCCCCCCCCCOS(=O)(=O)[O-].[Na+] [sodium lauryl sulfate, reference compound] | – | no change | – |
| – | protamine sulfate [reference compound] | – | did not affect | – |
| – | sorbitan sesquioleate [reference compound] | – | no change | – |

| Compound | PC of BPS, Equimolar amount [1, 4] | PC of BPS, Excess × 20 [1, 4] | effect of added compound on the partition coefficient of BPS (in words) [1] | further results |
| --- | --- | --- | --- | --- |
| CC(C)(C)CC(C)(C)c1ccc(OCCOCC[N+](C)(C)Cc2ccccc2)cc1 [Benzethonium chloride] | 70.8 | 1180 | – | – |
| CCCCCCCCCCCCCCCC[N+](C)(C)C.[Cl-] [Cetyltrimethylammonium chloride] | 91.6 | 935 | – | – |
| CCCCCCCCCCCC[N+](C)(C)Cc1ccccc1.[Cl-] [Lauryldimethylbenzylammonium chloride] | 71.2 | 1220 | – | – |
| CCCCCCCCCCCC[n+]1ccccc1.[Cl-] [Laurylpyridinium chloride] | 75.0 | 1200 | – | – |
| CCCCCCCCCCCC[N+](C)(C)C.[Cl-] [Lauryltrimethylammonium chloride] | 83.5 | 985 | increase | – |
| CCN(CC)CC(=O)Nc1c(C)cccc1C [Lidocaine hydrochloride, reference compound] | 17.1 | 37.5 | – | – |
| CCCC[N+](CCCC)(CCCC)Cc1ccccc1.[Cl-] [Tributylbenzylammonium chloride] | 24.5 | 140 | – | – |
